Values after ≈ are worked out from the molar mass of the structure shown.
What was measured:
[1] = biological target: Epidermal growth factor receptor (Homo sapiens, UniProt P00533); experiment: Inhibition of EGFR (unknown origin) by Z-LYTE assay
[2] = tested on: KB; experiment: Cytotoxicity against human KB cells after 48 hrs; type: cell-based
[3] = biological target: Receptor tyrosine-protein kinase erbB-2 (Homo sapiens, UniProt P04626); experiment: Inhibition of HER2 (unknown origin) by Z-LYTE assay
Sequence of Receptor tyrosine-protein kinase erbB-2 (P04626 whole entry): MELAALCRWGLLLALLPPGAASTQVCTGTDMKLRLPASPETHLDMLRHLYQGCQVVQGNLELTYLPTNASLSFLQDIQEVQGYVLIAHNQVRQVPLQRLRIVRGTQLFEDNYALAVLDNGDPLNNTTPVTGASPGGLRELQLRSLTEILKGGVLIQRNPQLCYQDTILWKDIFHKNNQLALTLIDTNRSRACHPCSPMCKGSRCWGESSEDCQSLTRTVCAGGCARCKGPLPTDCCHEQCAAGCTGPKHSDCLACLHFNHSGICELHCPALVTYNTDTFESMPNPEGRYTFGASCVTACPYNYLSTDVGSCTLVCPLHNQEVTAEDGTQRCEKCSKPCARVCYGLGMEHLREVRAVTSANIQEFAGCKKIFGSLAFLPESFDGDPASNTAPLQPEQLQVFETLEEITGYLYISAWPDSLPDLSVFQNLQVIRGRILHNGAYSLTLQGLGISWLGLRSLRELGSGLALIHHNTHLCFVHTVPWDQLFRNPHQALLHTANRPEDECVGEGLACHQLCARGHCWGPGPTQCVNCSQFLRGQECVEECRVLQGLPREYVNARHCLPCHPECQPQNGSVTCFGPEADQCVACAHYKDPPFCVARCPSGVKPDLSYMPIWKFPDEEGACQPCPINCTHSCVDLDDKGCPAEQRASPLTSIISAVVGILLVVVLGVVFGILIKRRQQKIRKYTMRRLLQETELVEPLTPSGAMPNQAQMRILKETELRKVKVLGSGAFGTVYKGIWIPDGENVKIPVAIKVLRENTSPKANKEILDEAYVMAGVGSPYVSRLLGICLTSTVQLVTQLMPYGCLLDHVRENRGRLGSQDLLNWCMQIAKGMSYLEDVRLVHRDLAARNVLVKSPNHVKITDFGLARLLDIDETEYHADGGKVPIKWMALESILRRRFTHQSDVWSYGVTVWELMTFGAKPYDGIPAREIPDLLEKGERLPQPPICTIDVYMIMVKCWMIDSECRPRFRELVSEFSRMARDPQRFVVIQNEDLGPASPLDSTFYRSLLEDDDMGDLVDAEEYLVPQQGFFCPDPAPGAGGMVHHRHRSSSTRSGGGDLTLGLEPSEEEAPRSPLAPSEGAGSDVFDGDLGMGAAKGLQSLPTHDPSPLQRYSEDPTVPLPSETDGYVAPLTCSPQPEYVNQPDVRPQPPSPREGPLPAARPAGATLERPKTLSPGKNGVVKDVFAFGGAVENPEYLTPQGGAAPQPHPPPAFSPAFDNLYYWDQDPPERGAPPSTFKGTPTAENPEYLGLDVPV

[4] = tested on: L1210; experiment: Cytotoxicity against mouse L1210 cells after 48 hrs; type: cell-based; conditions: L1210, 48 h

Sequence of Epidermal growth factor receptor (P00533 whole entry): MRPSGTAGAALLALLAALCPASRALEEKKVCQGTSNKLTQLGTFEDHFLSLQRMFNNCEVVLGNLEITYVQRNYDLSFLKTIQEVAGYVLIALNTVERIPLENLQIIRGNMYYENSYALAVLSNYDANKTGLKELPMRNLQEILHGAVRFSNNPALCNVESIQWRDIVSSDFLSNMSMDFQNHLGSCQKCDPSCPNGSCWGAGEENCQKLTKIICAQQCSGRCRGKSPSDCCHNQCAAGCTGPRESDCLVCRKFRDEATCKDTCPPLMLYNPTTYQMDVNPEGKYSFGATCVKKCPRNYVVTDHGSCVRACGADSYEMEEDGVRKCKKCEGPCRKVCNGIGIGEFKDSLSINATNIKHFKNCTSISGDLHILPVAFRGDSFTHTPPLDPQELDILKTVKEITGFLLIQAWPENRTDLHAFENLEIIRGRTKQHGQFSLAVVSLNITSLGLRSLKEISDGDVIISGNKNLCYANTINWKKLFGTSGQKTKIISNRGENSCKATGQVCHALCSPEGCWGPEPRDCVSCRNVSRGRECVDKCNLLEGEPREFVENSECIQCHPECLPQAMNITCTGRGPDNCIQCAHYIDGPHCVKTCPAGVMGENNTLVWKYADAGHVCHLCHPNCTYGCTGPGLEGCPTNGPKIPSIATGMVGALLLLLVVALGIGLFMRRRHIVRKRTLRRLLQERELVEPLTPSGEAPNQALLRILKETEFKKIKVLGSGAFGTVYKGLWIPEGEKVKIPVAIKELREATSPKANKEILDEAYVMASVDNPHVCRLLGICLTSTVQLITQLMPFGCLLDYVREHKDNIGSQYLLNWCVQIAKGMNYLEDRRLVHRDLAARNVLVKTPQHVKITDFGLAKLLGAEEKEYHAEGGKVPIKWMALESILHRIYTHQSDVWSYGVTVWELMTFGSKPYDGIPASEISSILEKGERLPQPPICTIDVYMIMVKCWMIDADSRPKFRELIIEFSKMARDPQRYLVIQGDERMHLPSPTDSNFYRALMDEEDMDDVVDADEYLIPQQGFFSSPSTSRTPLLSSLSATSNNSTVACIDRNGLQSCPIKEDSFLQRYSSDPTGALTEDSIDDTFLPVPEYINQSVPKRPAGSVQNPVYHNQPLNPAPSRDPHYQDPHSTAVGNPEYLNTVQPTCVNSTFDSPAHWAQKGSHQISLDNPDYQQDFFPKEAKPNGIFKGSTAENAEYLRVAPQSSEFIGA

Row | Compound | IC50 [1] [µM] | IC50 [2] [µg/mL] | IC50 [3] [µM] | IC50 [4] [µg/mL]
1 | C=C1[C@H](C)CCC[C@]1(C)CC/C(C)=C/CC1=C(O)C(=O)C=C(N[C@@H](C(=O)O)[C@H](C)O)C1=O | > 449 | > 10 | > 449 | 4.6 (≈ 10.3 µM)
2 | CC1=CCC[C@](C)(CC/C(C)=C/CC2=C(O)C(=O)C=C(N[C@@H](C(=O)O)[C@H](C)O)C2=O)[C@@H]1C | > 449 | > 10 | 215 | > 10
3 | C=C1[C@H](C)CCC[C@]1(C)CC/C(C)=C/CC1=C(O)C(=O)C=C(N[C@H](C(=O)O)[C@H](C)O)C1=O | > 449 | > 10 | > 449 | > 10
4 | CC1=CCC[C@](C)(CC/C(C)=C/CC2=C(O)C(=O)C=C(N[C@H](C(=O)O)[C@H](C)O)C2=O)[C@@H]1C | > 449 | > 10 | 89.8 | > 10
5 | C=C1[C@H](C)CCC[C@]1(C)CC/C(C)=C/CC1=C(O)C(=O)C=C(N[C@@H](C(=O)O)[C@@H](C)O)C1=O | 211 | > 10 | 180 | > 10
6 | CC1=CCC[C@](C)(CC/C(C)=C/CC2=C(O)C(=O)C=C(N[C@@H](C(=O)O)[C@@H](C)O)C2=O)[C@@H]1C | 269 | > 10 | > 449 | > 10
7 | C=C1[C@H](C)CCC[C@]1(C)CC/C(C)=C/CC1=C(O)C(=O)C=C(N[C@H](CO)C(=O)O)C1=O | > 463 | > 10 | > 463 | 2.6 (≈ 6.03 µM)
8 | CC1=CCC[C@](C)(CC/C(C)=C/CC2=C(O)C(=O)C=C(N[C@H](CO)C(=O)O)C2=O)[C@@H]1C | > 463 | > 10 | > 463 | > 10
9 | C=C1[C@H](C)CCC[C@]1(C)CC/C(C)=C/CC1=C(O)C(=O)C=C(N[C@H](C(=O)O)C(C)C)C1=O | 435 | > 10 | 104 | 4.4 (≈ 9.92 µM)
10 | CC1=CCC[C@](C)(CC/C(C)=C/CC2=C(O)C(=O)C=C(N[C@H](C(=O)O)C(C)C)C2=O)[C@@H]1C | 293 | > 10 | 78.9 | 3.4 (≈ 7.66 µM)
11 | C=C1[C@H](C)CCC[C@]1(C)CC/C(C)=C/CC1=C(O)C(=O)C=C(N[C@@H](C(=O)O)C(C)C)C1=O | 293 | 6.2 (≈ 14 µM) | 142 | 3.4 (≈ 7.66 µM)
12 | CC1=CCC[C@](C)(CC/C(C)=C/CC2=C(O)C(=O)C=C(N[C@@H](C(=O)O)C(C)C)C2=O)[C@@H]1C | 334 | > 10 | 83.4 | 3 (≈ 6.76 µM)
13 | C=C1[C@H](C)CCC[C@]1(C)CC/C(C)=C/CC1=C(O)C(=O)C=C(OC)C1=O [METACHROMIN A] | > 558 | > 10 | > 558 | 2.4 (≈ 6.69 µM)
14 | COC1=CC(=O)C(O)=C(C/C=C(\C)CC[C@@]2(C)CCC=C(C)[C@H]2C)C1=O [METACHROMIN C] | > 558 | > 10 | > 558 | –
15 | C=C1[C@H](C)CCC[C@]1(C)CC/C(C)=C/CC1=C(O)C(=O)C=C(NCC(=O)O)C1=O [METACHROMIN L] | 491 | 4 (≈ 9.96 µM) | 311 | 4 (≈ 9.96 µM)
16 | CC1=CCC[C@](C)(CC/C(C)=C/CC2=C(O)C(=O)C=C(NCC(=O)O)C2=O)[C@@H]1C [METACHROMIN M] | > 498 | 5.4 (≈ 13.4 µM) | 197 | 3.5 (≈ 8.72 µM)
17 | C=C1[C@H](C)CCC[C@]1(C)CC/C(C)=C/CC1=C(O)C(=O)C=C(N[C@H](C(=O)O)[C@@H](C)O)C1=O [METACHROMIN N] | > 449 | > 10 | 426 | > 10
18 | CC1=CCC[C@](C)(CC/C(C)=C/CC2=C(O)C(=O)C=C(N[C@H](C(=O)O)[C@@H](C)O)C2=O)[C@@H]1C [METACHROMIN O] | > 449 | > 10 | 60.6 | > 10
19 | C=C1[C@H](C)CCC[C@]1(C)CC/C(C)=C/CC1=C(O)C(=O)C=C(N[C@@H](CO)C(=O)O)C1=O [METACHROMIN P] | > 463 | > 10 | 41.7 | > 10
20 | CC1=CCC[C@](C)(CC/C(C)=C/CC2=C(O)C(=O)C=C(N[C@@H](CO)C(=O)O)C2=O)[C@@H]1C [METACHROMIN Q] | > 463 | > 10 | 51 | > 10
21 | CC1=CCC[C@H]2[C@](C)(CC3=C(O)C(=O)C=C(N[C@@H](CO)C(=O)O)C3=O)[C@@H](C)CC[C@]12C [NAKIJIQUINONE C] | 290 | 7.6 (≈ 17.6 µM) | 69.5 | 3.8 (≈ 8.81 µM)
